One test concerns the target ALK2 kinase (Homo sapiens (Human), UniProt Q04771). In words: Inhibitory activity test of the compounds on ALK2 (Promega ALK2 Kinase Enzyme System, ADP-Glo). In kind it is biochemical. The conditions noted are these: ADP-Glo chemiluminescence, 65 μM ATP substrate mix; read-out: IC50 (nM) values of the inhibitory activities on ALK2. As to the method:
1. Inhibitory Activity Test of the Compounds on ALK2
ALK2 Kinase Enzyme System kit from Promega was used for the test. Reagents for kinase test was prepared first, the reagents comprising: (1)4×Kinase buffer 250 μL (containing 200 μM DTT); (2)5×Inhibitor mother liquor, i.e., the test compound was prepared into 10 mM mother liquor with DMSO, and the test compound was diluted into 5 mM (20 μL of 10 mM test compound mother liquor+20 μL of DMSO dissolved) with DMSO; (3)1×Kinase buffer (containing 1% DMSO) 200 μL; (4)1×Kinase buffer 40 μL; @Kinase solution 115 μL; (6)Substrate Mix (containing 65 μM ATP) 120 μL. The inhibitor working solution was then prepared, i.e., the test compound was prepared into 5 mM mother liquor with DMSO, 1 μL of 5 mM mother liquor was taken and was diluted into the concentration of 50000 nM by adding 99 μL 1×Kinase buffer; 20 μL of the solution of this concentration was taken, and 80 μL of 1×Kinase buffer (containing 1% DMSO) was added thereto to obtain the concentration of 10000 nM, 5 times dilution was carried out in this way, and a total of 6 concentration gradients were provided. 1 μL of the compound at each concentration was taken and added to a 384-well plate, and then 2 μL Kinase solution (160 mM Tris, 7.5; 80 mM MgCl2; 0.4 mg/ml BSA; 200 μM DTT; ALK2 kinase) was added to each well, and the plate was centrifuged at 1000 rpm for 20 seconds at room temperature, incubated for 30 minutes at 25° C.; then 2 μL of a mixture containing ATP and kinase substrate was added to each well, the plate was centrifuged at 1000 rpm for 20 seconds at room temperature, and incubated at 25° C. for 120 minutes. Then 5 μL of ADP-Glo™ reagent was added to each well, and the plate was incubated at 25° C. for 40 minutes; then 10 μL of Kinase Detection Reagent was added to each well, the plate was incubated at 25° C. for 30 minutes and then was tested; a microplate reader was used to record the chemiluminescence value, the curve was fitted with Origin 7.5, the IC50 (nM) value of the test substance on the ALK2 kinase activity was calculated.

The next test has as its system hepcidin in HepG2 cells. In words: Inhibition test of compounds on hepcidin expression in HepG2 cells (hepcidin ELISA). The conditions noted are these: 48 hours incubation, hepcidin protein in supernatant by ELISA, read-out: IC50 (nM) values of the inhibitory activities on hepcidin in HepG2 cells. In kind it is cell-based, human. As to the method:
2. Inhibition Test of Compounds on Hepcidin Expression in HepG2 Cells
HepG2 cells (ATCC HB-8065) in the exponential growth phase were digested with trypsin-EDTA, inoculated into 96-well plates at 5000 cells/well, and cultured in MEM (10% FBS) medium at 37° C. under 5% CO2 conditions for 24 hours, the test compound dissolved in DMSO and diluted in the medium and at a gradient concentration was added to each culture well. The preparation method of the test compound is: a compound mother liquor at a concentration of 10 mM was prepared, and then the compound was diluted in a gradient. The highest concentration of the compound for test was 10 μM, and a total of 8 gradients were obtained by 5-fold dilution. The diluted compound was added to a 96-well plate covered with cells, 50 μL per well. After the compound was added, the plate was placed in an incubator stored at 37° C. and 5% CO2, and incubated for another 48 hours. After the incubation was completed, the 96-well plate was centrifuged at 1000 rpm for 5 minutes at room temperature, the supernatant was taken, ELISA sample loading and detecting were completed within 30 minutes. Hepcidin ELISA kit (Human Hepcidin Quantikine ELISA Kit, R&D systems, Cat #DHP250) was used to quantitatively detect hepcidin protein. […] After washing and color development, the absorbance value was determined with a microplate reader at 450 nm, and the concentration of hepcidin protein in the test sample was calculated according to the quasi-curve of human hepcidin protein determination, and the curve was fitted with Origin 7.5 software, the IC50 (nM) value on the inhibition of producing hepcidin preotein of HepG2 cells by the test compound was calculated.

Where two headings read alike, the source gives them in different places. Bounds are passed on as bounds.

Sequence of ALK2 kinase (Q04771 21-509): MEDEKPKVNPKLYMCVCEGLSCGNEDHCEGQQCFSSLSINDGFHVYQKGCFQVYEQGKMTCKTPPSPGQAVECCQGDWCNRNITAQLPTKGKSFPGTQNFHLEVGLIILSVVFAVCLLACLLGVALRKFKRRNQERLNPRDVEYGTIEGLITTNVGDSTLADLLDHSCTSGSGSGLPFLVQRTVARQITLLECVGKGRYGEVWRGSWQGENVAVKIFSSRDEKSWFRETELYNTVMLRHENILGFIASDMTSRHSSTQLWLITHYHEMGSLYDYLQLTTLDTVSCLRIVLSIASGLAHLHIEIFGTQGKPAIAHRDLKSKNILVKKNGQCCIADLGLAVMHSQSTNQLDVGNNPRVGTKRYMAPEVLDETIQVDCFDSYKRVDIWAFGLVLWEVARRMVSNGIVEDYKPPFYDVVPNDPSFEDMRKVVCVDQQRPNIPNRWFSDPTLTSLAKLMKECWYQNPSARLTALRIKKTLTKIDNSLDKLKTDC

With `COc1cc(Nc2nccc(Nc3cccnc3-c3ccccn3)n2)ccc1C1CCOCC1` [Compound 1, N^4-(2,2′-bipyridin-3-yl)-N^2-(3-methoxy-4-(tetrahydro-2H-pyran-4-yl)phenyl)pyrimidine-2,4-diamine], the IC50 – broadly, the midpoint of a concentration-inhibition curve – at ALK2 kinase was in the range of 150 to 500 nM.
`COc1cc(Nc2nccc(Nc3cccnc3-c3ccccn3)n2)ccc1C1CCN(C)CC1` [Compound 2, N^4-(2,2′-bipyridin-3-yl)-N^2-3-(methoxy-4-(1-methylpiperidin-4-yl)phenyl)pyrimidine-2,4-diamine]: the IC50 is no more than 150 nM on ALK2 kinase and 14 nM in the test with hepcidin in HepG2 cells (Homo sapiens).
With `COc1cc(Nc2ncc(OC)c(Nc3cccnc3-c3ccccn3)n2)ccc1C1CCOCC1` [Compound 4, N^4-(2,2′-bipyridin-3-yl)-5-methoxy-N^2-(3-methoxy-4-(tetrahydro-2H-pyran-4-yl)phenyl)pyrimidine-2,4-diamine], the concentration for half-maximal inhibition (IC50) on ALK2 kinase lay within 150 to 500 nM.
For the compound `COc1cc(Nc2nccc(Nc3ccc(C)nc3-c3ccccn3)n2)ccc1C1CCN(C)CC1` [Compound 5, N^2-(3-methoxy-4-(1-methylpiperidin-4-yl)phenyl)-N^4-(6-methyl-2,2′-bipyridin-3-yl)pyrimidine-2,4-diamine], the concentration for half-maximal inhibition (IC50) on ALK2 kinase is no more than 150 nM; with hepcidin in HepG2 cells (Homo sapiens), 30 nM.
Turning to `COc1cc(Nc2nccc(Nc3cccnc3-c3ccccn3)n2)cc(OC)c1OC` [Compound I*, reference compound], the IC50 on ALK2 kinase is no less than 500 nM; with hepcidin in HepG2 cells, 532 nM.

The values are drawn from patent publication US12448364B2, “2, 4-diaminopyrimidine derivative and application thereof” (Shanghai Zheye Biotechnology Co., Ltd., priority 2018, dated 2025).
